Results on 1 molecule are retold here after US20220142948A1, “COMPOSITIONS AND METHODS FOR MODULATING METABOLIC REGULATORS OF T CELL PATHOGENICITY” (The Broad Institute, Inc., priority 2019, published 2022).

“Also recorded” adds a separate entry of the source.

For assay [1], the system named is cellular polyamines in Th17p, Th17n and iTregs. The assay is described as follows: Total cellular polyamine content (enzymatic assay, Total Polyamine Assay Kit). It counts as cell-based, mouse. From the text:
Polyamine ELISA. Cell pellets of in vitro differentiated cells were frozen down and further processed with the Total Polyamine Assay Kit (BioVision Inc.) according to the manufacturer's instructions.

The test system of assay [2] is Th17n, Th17p and iTreg cells. The assay is described as follows: Population ATAC-seq chromatin accessibility. It counts as cell-based, mouse.
Description: ATAC-seq. For population ATAC-seq, in vitro differentiated T-cells were sorted for live cells and froze down in Bambanker freezing media (Thermo Fisher Scientific).
Alignment of ATAC-Seq and Peak Calling. All ATAC-Seq reads were trimmed using Trimmomatic to remove primer and low-quality bases. Reads <36 bp were dropped. Reads were then passed to FastQC [www.bioinformatics.babraham.ac.uk/projects/fastqc/] to check the quality of the trimmed reads. The paired-end reads were then aligned to the mm10 reference genome using bowtie2 [29], allowing maximum insert sizes of 2000 bp, with the “—no-mixed” and “—no-discordant” parameters added. Reads with a mapping quality (MAPA) below 30 were removed. Duplicates were removed with PicardTools, and the reads mapping to the blacklist regions and mitochondrial DNA were also removed. Reads mapping to the positive strand were moved +4 bp, and reads mapping to the negative strand were moved −5 bp following the procedure outlined in [30] to account for the binding of the Tn5 transposase.
(§1) Peaks were called using macs2 on the aligned fragments with a qvalue cutoff of 0.001 and overlapping peaks among replicates were merged.
Tests of Differential Accessibility in ChARs. Differential accessibility was assessed using DESeq2 [32] on with a matrix of peaks by samples replacing the genes by samples matrix. Counts of Tn5 cuts were used instead of gene expression values.
ATAC-seq. For population ATAC-seq, in vitro differentiated T-cells were sorted for live cells and stored in Bambanker freezing media (Thermo Fisher Scientific) at −80° C. until further processing. Prior to library preparation, cells were thawed at 37° C. and washed with PBS. For ATAC-seq, cell pellets were lysed and tagmented in 1×TD Buffer, 0.2 ul TDE1 (Illumina), 0.01% digitonin, and 0.3×PBS in 40 ul reaction volume following the protocol described in [49]. Transposition reactions were incubated at 37° C. for 30 min at 300 rpm. The DNA was purified from the reaction using a MinElute PCR purification kit (QIAGEN). The whole resulting product was then PCR-amplified using indexed primers with NEBNext High-Fidelity 2X PCR Master Mix (NEB). First, Applicants performed 5 cycles of pre-amplification. Applicants sampled 10% of the pre-amplification reaction for SYBR Green quantitative PCR to assess the number of additional cycles needed for final amplification. After purifying the final library with the MinElute PCR purification kit (QIAGEN), the library was quantified for sequencing using qPCR and a Qubit dsDNA HS Assay kit (Invitrogen). Libraries were sequenced on an Illumina NextSeq 550 system with paired-end reads of 37 base pairs in length.
Alignment of ATAC-Seq and Peak Calling. All ATAC-Seq reads were trimmed using Trimmomatic to remove primer and low-quality bases. Reads <36 bp were dropped. Reads were then passed to FastQC [www.bioinformatics.babraham.ac.uk/projects/fastqc/] to check the quality of the trimmed reads. The paired-end reads were then aligned to the mm10 reference genome using bowtie2 [51], allowing maximum insert sizes of 2000 bp, with the “—no-mixed” and “—no-discordant” parameters added. Reads with a mapping quality (MAPA) below 30 were removed. Duplicates were removed with PicardTools, and the reads mapping to the blacklist regions and mitochondrial DNA were also removed. Reads mapping to the positive strand were moved +4 bp, and reads mapping to the negative strand were moved −5 bp following the procedure outlined in [52] to account for the binding of the Tn5 transposase.
as §1
Tests of Differential Accessibility. Differential accessibility was assessed using DESeq2 [54] on with a matrix of peaks (merging all samples) by samples. […]

In assay [3] the test system is experimental autoimmune encephalomyelitis (EAE). The assay is described as follows: Active EAE (MOG35-55/CFA immunization) with DFMO in drinking water. The format is in vivo, mouse. The method, then:
Experimental Autoimmune Encephalomyelitis (EAE). […] Equivalent of 40 μg MOG peptide was injected per mouse subcutaneously followed by pertussis toxin injection intravenously on day 0 and day 2 of immunization. Mice were treated with 0.5% DFMO in drinking water for 10 days as indicated. DFMO was replenished every third day.
Experimental Autoimmune Encephalomyelitis (EAE). […] Equivalent of 40 μg MOG peptide was injected per mouse subcutaneously followed by pertussis toxin injection intravenously on day 0 and day 2 of immunization. Mice were monitored and assigned grades for clinical signs of EAE using the following scoring system: 0, healthy; 1, limp tail; 2, impaired righting reflex or ataxic gait; 3, hind limb paralysis; 4, total limb paralysis; 5, moribund or death. Mice with a score of >4 were euthanized. If mice died during the course of the experiment, their clinical score of 5 was included in the analysis for the remainder of the experiment.

Consider `NCCC[C@](N)(C(=O)O)C(F)F` [DFMO, 2-(difluoromethyl)ornithine], for which, in assay [1] (Th17n cells), the polyamine concentration entry is reported as “decrease; also recorded: suppression of polyamines”. Moreover, the polyamine concentration result in assay [1] (Th17p cells) is given as “decrease; also recorded: suppression of polyamines”. For the same molecule, the polyamine concentration result in assay [1] (iTregs) was “decrease; also recorded: suppression of polyamines”. Further, in assay [2], the “ATACseq peaks in the Il23r region” value was “no significant difference”, the “accessibility in Th17 specific regions” value is listed as “specifically reduced accessibility; also recorded: reduces accessibility; also recorded: more restricted landscape; also recorded: less accessibility”, the “accessibility in Treg specific regions” value is “more accessible landscape; also recorded: more accessibility” and the “peaks near regulatory elements for Foxp3 such as CNS2” value is reported as “no differentially expressed peaks”. In addition, in assay [2] (Rorgt binding site), the “peaks in the promoter and intergenic regions of Il17a-Il17f” value is reported as “significantly restricted peaks”. Besides, in assay [2] (Th17n cells), the “accessibility near potential binding sites of JMJD3 and POU-domain TFs” value is “increased accessibility”. The accessible peaks overall result in assay [2] (Th cells analyzed) is recorded as “alters chromatin accessibility; also recorded: significant changes in accessible peaks; also recorded: considerable changes in accessible peaks”. For the same molecule, the “motif enrichment in iTreg-specific accessible regions” value in assay [2] (both Th17n and Th17p cells) is “significant enrichment of BATF and cMAF motifs”. Also, the “EAE clinical score, onset and severity” value in assay [3] (0.5% DFMO in drinking water for 10 days) was “effective in reducing EAE; also recorded: decreases the EAE score; also recorded: delays EAE onset; also recorded: significantly delayed the onset and severity of EAE; also recorded: significant impact in curtailing EAE”. In assay [3] (lymphocytes isolated from CNS), the “Foxp3+CD4+ T cells (Tregs)” value was “promotes Tregs; also recorded: increased frequency” and the “frequency of cytokine producing cells” value was “no difference”.
